Measurements as given in ChEMBL document CHEMBL1201862, “PubChem BioAssay data set” (2004).
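Growth conditions: 96-well plates. Treatment: test compound, 48 hours, 5 concentrations. Analysis: linear interpolation between bracketing concentrations; unreached endpoints set to highest concentration. The concentration for 50% growth inhibition is given as GI50.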 Calls of active or inactive are those of the source. Cut-off read from the data, not from the text of the source: active = GI50 up to about 1.1 µM and inactive = higher.

Assays:
Experiment in all cases: NCI tumour cell line growth inhibition, 48 h
[1] = system: KM12
[2] = system: PC-3
[3] = system: MDA-N
[4] = system: HCT-15
[5] = system: BT-549
[6] = system: CAKI-1
[7] = system: MDA-MB-435
[8] = system: T47D
[9] = system: U-251
[10] = system: UACC-62
[11] = system: OVCAR-3
[12] = system: EKVX
[13] = system: SF-539
[14] = system: UO-31
[15] = system: HOP-92
[16] = system: MOLT-4
[17] = system: HCC 2998
[18] = system: SK-OV-3
[19] = system: OVCAR-8
[20] = system: HT-29
[21] = system: Hs-578T
[22] = system: OVCAR-5
[23] = system: SNB-19
[24] = system: TK-10
[25] = system: A549
[26] = system: SF-295
[27] = system: HCT-116
[28] = system: COLO 205
[29] = system: SK-MEL-28
[30] = system: Malme-3M
[31] = system: HL-60
[32] = system: MCF7
[33] = system: ACHN
[34] = system: MDA-MB-231
[35] = system: IGROV-1
[36] = system: 786-0
[37] = system: DU-145
[38] = system: M14
[39] = system: LOX IMVI
[40] = system: SF-268
[41] = system: OVCAR-4
[42] = system: NCI-H226
[43] = system: NCI-H522
[44] = system: NCI/ADR-RES
[45] = system: NCI-H460
[46] = system: SK-MEL-2
[47] = system: K562
[48] = system: SN12C
[49] = system: SK-MEL-5
[50] = system: A498
[51] = system: CCRF-CEM
[52] = system: NCI-H23
[53] = system: UACC-257
[54] = system: SW-620
[55] = system: SR
[56] = system: RXF 393
[57] = system: HOP-62
[58] = system: SNB-75

CCC(C#N)NCc1cccc(CNC(C#N)CC)c1 (stereo not drawn) was tested, and the GI50 [1] was > 100 µM (inactive), the GI50 [2] was > 100 µM (inactive) and the GI50 [3] was > 100 µM (inactive). The GI50 [4] was over 100 µM, the GI50 [5] was > 100 µM (inactive) and the GI50 [6] was > 100 µM (inactive). The GI50 [7] was > 100 µM (inactive), the GI50 [8] was > 100 µM (inactive) and the GI50 [9] was > 100 µM (inactive). For the same molecule, the GI50 [10] was > 100 µM (inactive), the GI50 [11] was > 100 µM (inactive) and the GI50 [12] was > 100 µM (inactive). For the same molecule, the GI50 [13] was > 100 µM (inactive), the GI50 [14] was > 100 µM (inactive) and the GI50 [15] was > 100 µM (inactive). For the same molecule, the GI50 [16] was > 100 µM (inactive), the GI50 [17] was > 100 µM (inactive) and the GI50 [18] was 18.4 µM (inactive). For the same molecule, the GI50 [19] was > 100 µM (inactive), the GI50 [20] was > 100 µM (inactive) and the GI50 [21] was 98.9 µM (inactive). For the same molecule, the GI50 [22] was 20 µM (inactive), the GI50 [23] was > 100 µM (inactive) and the GI50 [24] was > 100 µM (inactive). For the same molecule, the GI50 [25] was > 100 µM (inactive), the GI50 [26] was 19.5 µM (inactive) and the GI50 [27] was > 100 µM (inactive). The GI50 [28] was > 100 µM (inactive), the GI50 [29] was > 100 µM (inactive) and the GI50 [30] was > 100 µM (inactive). For the same molecule, the GI50 [31] was > 100 µM (inactive), the GI50 [32] was > 100 µM (inactive) and the GI50 [33] was > 100 µM (inactive). For the same molecule, the GI50 [34] was > 100 µM (inactive), the GI50 [35] was > 100 µM (inactive) and the GI50 [36] was > 100 µM (inactive). For the same molecule, the GI50 [37] was > 100 µM (inactive), the GI50 [38] was 17.6 µM (inactive) and the GI50 [39] was > 100 µM (inactive). For the same molecule, the GI50 [40] was > 100 µM (inactive), the GI50 [41] was > 100 µM (inactive) and the GI50 [42] was > 100 µM (inactive). The GI50 [43] was > 100 µM (inactive), the GI50 [44] was > 100 µM (inactive) and the GI50 [45] was > 100 µM (inactive). For the same molecule, the GI50 [46] was > 100 µM (inactive), the GI50 [47] was > 100 µM (inactive) and the GI50 [48] was > 100 µM (inactive). For the same molecule, the GI50 [49] was > 100 µM (inactive), the GI50 [50] was > 100 µM (inactive) and the GI50 [51] was > 100 µM (inactive). For the same molecule, the GI50 [52] was > 100 µM (inactive), the GI50 [53] was > 100 µM (inactive) and the GI50 [54] was > 100 µM (inactive).
For O=c1[nH]nc(-c2ccccc2)n1/N=C/c1ccco1, the GI50 [55] was > 100 µM (inactive), the GI50 [1] was > 100 µM (inactive) and the GI50 [2] was > 100 µM (inactive). The GI50 [3] was > 100 µM (inactive), the GI50 [4] was over 100 µM and the GI50 [5] was 32.6 µM (inactive). The GI50 [6] was > 100 µM (inactive), the GI50 [7] was > 100 µM (inactive) and the GI50 [8] was > 100 µM (inactive). For the same molecule, the GI50 [9] was > 100 µM (inactive), the GI50 [10] was 83.2 µM (inactive) and the GI50 [11] was > 100 µM (inactive). The GI50 [12] was > 100 µM (inactive), the GI50 [13] was > 100 µM (inactive) and the GI50 [14] was > 100 µM (inactive). For the same molecule, the GI50 [15] was > 100 µM (inactive), the GI50 [16] was > 100 µM (inactive) and the GI50 [18] was > 100 µM (inactive). For the same molecule, the GI50 [19] was > 100 µM (inactive), the GI50 [56] was > 100 µM (inactive) and the GI50 [20] was > 100 µM (inactive). The GI50 [21] was > 100 µM (inactive), the GI50 [22] was > 100 µM (inactive) and the GI50 [23] was > 100 µM (inactive). The GI50 [24] was > 100 µM (inactive), the GI50 [25] was > 100 µM (inactive) and the GI50 [26] was > 100 µM (inactive). The GI50 [27] was > 100 µM (inactive), the GI50 [28] was > 100 µM (inactive) and the GI50 [29] was > 100 µM (inactive). The GI50 [30] was > 100 µM (inactive), the GI50 [31] was > 100 µM (inactive) and the GI50 [57] was > 100 µM (inactive). The GI50 [32] was 0.0719 µM (active), the GI50 [33] was > 100 µM (inactive) and the GI50 [35] was > 100 µM (inactive). The GI50 [36] was > 100 µM (inactive), the GI50 [37] was > 100 µM (inactive) and the GI50 [58] was > 100 µM (inactive). The GI50 [38] was > 100 µM (inactive), the GI50 [39] was > 100 µM (inactive) and the GI50 [40] was > 100 µM (inactive). For the same molecule, the GI50 [41] was 30.1 µM (inactive), the GI50 [43] was > 100 µM (inactive) and the GI50 [44] was > 100 µM (inactive). The GI50 [45] was > 100 µM (inactive), the GI50 [46] was > 100 µM (inactive) and the GI50 [48] was 29.2 µM (inactive). The GI50 [49] was > 100 µM (inactive), the GI50 [50] was > 100 µM (inactive) and the GI50 [51] was > 100 µM (inactive). For the same molecule, the GI50 [52] was > 100 µM (inactive), the GI50 [53] was > 100 µM (inactive) and the GI50 [54] was > 100 µM (inactive).
